Experimental data reported in patent publication EP0292365A2, “4-Amino-5,8-quinazolindione derivatives, process for their preparation and pharmaceutical compositions containing them” (CENTRE NATIONAL DE LA RECHERCHE SCIENTIFIQUE, priority 1987, dated 1988).
Where two headings read alike, the source gives them in different places.

Tests used:
Leucémie P388 = type: in vivo, souris DBA/2; conditions: for survivants 30 jours / Δ P J1-J5 / T/C / Doses actives (T/C ≥ 125 %): P388; for T/C: survivants inclus; for activité antitumorale sur la leucémie P388: summary
Text: Afin de tester l'activité antitumorale des composés décrits plus haut, on a utilisé les leucémies murines P388 et L1210, ainsi que le mélanome murin B16. La leucémie P388 est considère comme très sensible et permet une première sélection. D'autre part, une substance ayant une grande activité sur la leucémie L1210 a une grande chance d'être active en clinique humaine (J.M. Venditti; Relevance of transplantable animal tumor systems to the Selection of new agents for clinical trial in pharmacological basis of cancer chemotherapy. The University of Texas ed. Williams and Wilkins, publ. 1975, Baltimore USA).
Cette étude a été réalisée sur 1, 2 ou 3 tumeurs murines expérimentales selon le schéma suivant :
Les produits en solution dans l'eau ou en suspension dans du Klucel sont administrés par voie intrapéritonéale 24 heures après la greffe des cellules tumorales (10 animaux par série), soit en injection unique (J1), soit pendant 9 jours consécutifs (Ji-9). Les morts sont relevés chaque jour à la même heure. La comparaison du temps médian de survie des souris témoins (C) et des souris traitées (T) permet d'apprécier l'activité antitumorale du produit. On adopte comme critère d'activité minimale la valeur de T/C supérieure ou égale à 125 % conformément aux critères établis par GERAN et par l'O.M.S. (Réf. GERAN R.I., GREENBERG N.H., MACDONALD M.M., SCHUMACHER A.M. and ABBOTT B.J. Protocols for screening chemical agents and natural products against animal tumors and other biological systems. Cancer Chemother. Rep. Part 3, 3, 1-103 (1972)).
Lorsque le composé est actif sur plusieurs tumeurs, son administration par d'autres voies que la voie intrapéritonéale (i.p.) est envisagée : orale (p.o) et intraveineuse (i.v). Les résultats des essais effectués à l'aide du composé 63 sont rassemblés dans le tableau IV ci-après.
Les résultats des essais effectués à l'aide des composés de l'invention n° 57 et 59 sont rassemblés dans le tableau IV Bis ci-après.
Dans les tableaux IV et IV Bis, P représentent la variation de poids entre J1 et J5 des animaux traités; lorsque P est supérieure à environ 4 g, cela signifie que la dose à laquelle le composé a été testé est toxique.

lignée HBL = assay: Effect on cell cycle phases (cell kinetics parameters), HBL line; type: cell-based, humaine; conditions: for G2±M / GO-G1 / S / G2+M / G1-GO: HBL
Method: Les cellules tumorales en croissance exponentielle sont ensemencées (10.000 cellules/ml) dans des boîtes à Petri contenant au fond de la boîte un couvre-objet (18 x 18 mm) et 3 ml de MEM (MEM = milieu essentiel minimum) + 5 % FCS (FCS = serum de veau fetal) (v/v). […] Trois couvre-objets sont fixés pour chaque condition expérimentale : éthanol 95° (75 v), formol neutre à 40 % (20 v), acide acétique (5 v), pendant 10 minutes. Les cellules témoins cultivées dans le milieu expérimental sans le produit à tester sont fixées au même moment. A la fin de la fixation, les couvre-objets sont retournés et montés sur des lames histologiques à l'aide de produit commercialisé sous la marque DPX par la Société British Drug House et conservés à l'abri de la lumière et à 4° en attendant d'être colorés.
Les lames avec les couvre-objets sont colorées par une réaction de Feulgen modifiée. Toutes les lames d'une condition expérimentale sont conditionnées par le réactif de Feulgen en même temps, pendant une heure, après hydrolyse dans un milieu HCI 6N pendant une heure à 20° C. Les préparations cellulaires sont ensuite conservées à l'abri de la lumière et à 4°C en attendant l'analyse.
Grâce à un système d'analyse microscopique à balayage automatique, on détermine l'effet de la drogue sur la croissance cellulaire, au cours du temps, sur deux lignées cellulaires tumorales d'origine humaine : la lignée MCF-7 d'origine mammaire et la lignée HBL (mélanome malin).
On a représenté sur le tableau D BIS les résultats relatifs aux effets du composé 63 au cours du temps sur les différentes phases du cycle cellulaire (lignée HBL) où il est possible d'observer le nombre de cellules survivant à chaque phase du cycle cellulaire.
Dans les tableaux, GO-G1, S et G2 + M correspondent à des différentes phases de multiplication des cellules, telles qu'elles sont définies dans "Cell proliferation kinetics of MCF-7 human mammary carcinome cells in culture and effects of tamoxifen on exponentially growing and plateau - phase cells" R.L. Sutherland, R.E. Hall and I.W. Taylor, Cancer Research 43, pp. 3998 à 4006, 1983.

[1] = greffe ip(10^6cel.), ip J1-9, dose optimale 0,4 mg/kg/inj.
[2] = greffe ip(10^6cel.), ip J1, dose 1,25 mg/kg/inj.
[3] = greffe ip(10^6cel.), ip J1, dose optimale 3 mg/kg/inj.
[4] = greffe ip(10^6cel.), iv J1, dose 1,25 mg/kg/inj. (2 doses testées)
[5] = greffe ip(10^6cel.), po J1, dose optimale 30 mg/kg/inj.
[6] = greffe iv(10^5cel.), iv J1, dose 1,25 mg/kg/inj. (1 seule dose testée)

With `CN(C)CCCNc1ncnc2c1C(=O)C(N1CC1)=C(N1CC1)C2=O` [composé 63] the “survivants 30 jours” value (Leucémie P388; [1]) was 0, the “Δ P J1-J5” value (Leucémie P388; [1]) was -2,1 g and the T/C (Leucémie P388; [1]) was 222%. For the same molecule, the “survivants 30 jours” value (Leucémie P388; [2]) was 1, the “Δ P J1-J5” value (Leucémie P388; [2]) was -1,7 g and the T/C (Leucémie P388; [2]) was 174%. The “survivants 30 jours” value (Leucémie P388; [3]) was 0, the “Δ P J1-J5” value (Leucémie P388; [3]) was -2,0 g and the T/C (Leucémie P388; [3]) was 188%. The “survivants 30 jours” value (Leucémie P388; [4]) was 0, the “Δ P J1-J5” value (Leucémie P388; [4]) was -0,7 g and the T/C (Leucémie P388; [4]) was 136%. For the same molecule, the “survivants 30 jours” value (Leucémie P388; [5]) was 0, the “Δ P J1-J5” value (Leucémie P388; [5]) was -4,7 g and the T/C (Leucémie P388; [5]) was 140%. The “Doses actives (T/C ≥ 125 %)” value (Leucémie P388; greffe ip(10^6cel.), traitement ip J1) was 0,1-3 mg/kg/inj, the “Doses actives (T/C ≥ 125 %)” value (Leucémie P388; greffe ip(10^6cel.), traitement ip J1-9) was 0,017-0,8 mg/kg/inj and the “Doses actives (T/C ≥ 125 %)” value (Leucémie P388; greffe ip(10^6cel.), traitement po J1) was 20-30 mg/kg/inj. The “survivants 30 jours” value (Leucémie P388; [6]) was 0, the “Δ P J1-J5” value (Leucémie P388; [6]) was -0,1 g and the T/C (Leucémie P388; [6]) was 147%. For the same molecule, the “activité antitumorale sur la leucémie P388” value (Leucémie P388; par voie orale et par voie intraveineuse) was “reste actif”, the “activité antitumorale sur la leucémie P388” value (Leucémie P388; voie intrapéritonéale) was “excellente activité antitumorale” and the “G2±M” value (lignée HBL; F (10µg/ml), 1 jour) was 14.0 ± 0.1 ns. The GO-G1 (lignée HBL; F (10µg/ml), 1 jour) was 62.7 ± 2.0 ns, the S (lignée HBL; F (10µg/ml), 1 jour) was 23.3 ± 2.0 ns and the “G2+M” value (lignée HBL; F (10µg/ml), 2 jours) was 13.3 ± 2.2 ns. For the same molecule, the GO-G1 (lignée HBL; F (10µg/ml), 2 jours) was 58.7 ± 0.9, the S (lignée HBL; F (10µg/ml), 2 jours) was 28.0 ± 2.1 and the “G2+M” value (lignée HBL; F (10µg/ml), 3 jours) was 12.3 ± 0.7 ns. It also gave a GO-G1 (lignée HBL; F (10µg/ml), 3 jours) of 59.7 ± 0.9, an S (lignée HBL; F (10µg/ml), 3 jours) of 28.0 ± 1.0 and a G1-GO (lignée HBL; F (10µg/ml), 4 jours) of 59.0 ± 1.5 ns. The “G2+M” value (lignée HBL; F (10µg/ml), 4 jours) was 12.3 ± 1.9 ns, the S (lignée HBL; F (10µg/ml), 4 jours) was 28.7 ± 0.7 ns and the “G2±M” value (lignée HBL; M (1µg/ml), 1 jour) was 12.7 ± 1.5 ns. The GO-G1 (lignée HBL; M (1µg/ml), 1 jour) was 62.3 ± 1.9 ns, the S (lignée HBL; M (1µg/ml), 1 jour) was 25.0 ± 3.6 ns and the “G2+M” value (lignée HBL; M (1µg/ml), 2 jours) was 13.7 ± 1.2 ns. For the same molecule, the GO-G1 (lignée HBL; M (1µg/ml), 2 jours) was 58.3 ± 1.3, the S (lignée HBL; M (1µg/ml), 2 jours) was 28.0 ± 1.0 and the “G2+M” value (lignée HBL; M (1µg/ml), 3 jours) was 15.3 ± 1.3 ns. For the same molecule, the GO-G1 (lignée HBL; M (1µg/ml), 3 jours) was 56.7 ± 1.8, the S (lignée HBL; M (1µg/ml), 3 jours) was 28.0 ± 3.1 and the G1-GO (lignée HBL; M (1µg/ml), 4 jours) was 58.0 ± 0.6 ns. The “G2+M” value (lignée HBL; M (1µg/ml), 4 jours) was 16.0 ± 2.1, the S (lignée HBL; M (1µg/ml), 4 jours) was 26.0 ± 1.7 ns and the “G2±M” value (lignée HBL; f (0.1µg/ml), 1 jour) was 12.7 ± 1.2 ns. For the same molecule, the GO-G1 (lignée HBL; f (0.1µg/ml), 1 jour) was 56.0 ± 1.5, the S (lignée HBL; f (0.1µg/ml), 1 jour) was 31.3 ± 2.6 and the “G2+M” value (lignée HBL; f (0.1µg/ml), 2 jours) was 10.3 ± 2.2 ns. For the same molecule, the GO-G1 (lignée HBL; f (0.1µg/ml), 2 jours) was 53.0 ± 1.5, the S (lignée HBL; f (0.1µg/ml), 2 jours) was 36.7 ± 3.7 and the “G2+M” value (lignée HBL; f (0.1µg/ml), 3 jours) was 11.0 ± 0.6 ns. The GO-G1 (lignée HBL; f (0.1µg/ml), 3 jours) was 53.7 ± 1.3, the S (lignée HBL; f (0.1µg/ml), 3 jours) was 35.3 ± 0.9 and the G1-GO (lignée HBL; f (0.1µg/ml), 4 jours) was 53.3 ± 1.2. The “G2+M” value (lignée HBL; f (0.1µg/ml), 4 jours) was 14.0 ± 2.3 ns, the S (lignée HBL; f (0.1µg/ml), 4 jours) was 32.7 ± 3.5 ns and the “effet sur le cycle cellulaire (HBL)” value (lignée HBL; summary of tableau D BIS) was “bloque les cellules en phase S”.
